In patent US7164003B2, “Histamine receptor H4 polynucleotides” (Merck & Co. Inc., priority 2001, dated 2007):

Columns and labels:
H4c receptor variant = conditions: 1 μM in PBS, 37° C., 30 min, transfected COS-7 cells, H4c variant cDNA, compared with H4a-transfected cells
Protocol: (§1) The full length wild type […]) and the isoforms H4b and […] were cloned in pCDNA3.1 […] Tag eukaryotic expression vector for expression in COS-7 cells. The COS-7 cells grown in culture chambers were transfected with 2 μg of plasmid DNA containing either one of the H4 isoforms or the wild type H4 with superfect (Qiagen) transfection reagent. Binding of Histamine to receptor or receptor variants was determined by BODIPY-L-Histamine or Fluorescein Histamine (Molecular Probes, Eugene Oreg.). Briefly, the transfected cells were washed with PBS and 1 μM concentration of BODIPY-L-Histamine or Fluorescein Histamine in PBS was added to the cells and incubated at 37° C. for 30-min. Unbound fluorescent labelled histamine was washed in cold PBS and the slides were examined immediately under a fluorescent microscope.

H4b receptor variant = conditions: 1 μM in PBS, 37° C., 30 min, transfected COS-7 cells, H4b variant cDNA, compared with H4a-transfected cells
Protocol: as §1

Row | Binding of fluorescent labelled histamine (fluorescence under microscope) versus H4 wildtype (H4a) (H4c receptor variant) | Binding of fluorescent labelled histamine (fluorescence under microscope) versus H4 wildtype (H4a) (H4b receptor variant) | Substance
1 | qualitatively comparable fluorescence | qualitatively comparable fluorescence | BODIPY-L-Histamine
2 | qualitatively comparable fluorescence | qualitatively comparable fluorescence | Fluorescein Histamine
